According to patent publication US20220226265A1, “METHODS OF CONTROLLING MYOCARDIAL BLOOD FLOW” (UNIVERSITY OF LOUISVILLE RESEARCH FOUNDATION, INC., priority 2021, published 2022):

Test system: wild type and Kvβ-null mice
Test: Echocardiographic cardiac function during intravenous norepinephrine infusion
Type: in vivo, mouse
Conditions: for ejection fraction: after 1 min of 5 μg/kg·min−1 norepinephrine infusion
Description: In vivo measurements of cardiac function and myocardial blood flow: Mice were anesthetized with 3% isoflurane and supplemental O2, administered (1 L·min^−1) in a small induction chamber. After induction, the mice were placed on a controlled heating table in a supine position. Anesthesia was maintained throughout the procedure by delivery of 1-2% isoflurane and supplemental O2 (0.5 L·min^−1). The extremities were secured to the surgical table by tape and a lubricated probe was inserted rectally to monitor body temperature. The chest, neck, and hind limb hair were then removed using a depilatory agent, the skin was rinsed with warm water, and the neck area was disinfected with 70% ethanol/betadine and an incision (10-15 mm) was made at the right side of the neck. For infusion of contrast agent and drugs, the jugular vein was isolated using blunt forceps and catheterized with sterilized PE-50 polyethylene tubing (pre-filled with heparinized saline; 50 U·ml^−1). The jugular vein catheter was then secured in place with two sutures. For continuous measurement of arterial blood pressure, a small incision was made on the hind limb and the femoral artery was isolated and cannulated with a 1.2 F pressure catheter (SciSense, Transonic Systems, Inc., Ithaca, N.Y., USA) connected to a PowerLab data acquisition system (ADInstruments, Colorado Springs, Colo., USA) through a SP200 pressure interface unit designed to measure arterial blood pressure and heart rate. After cannulation, the pressure catheter was advanced 10 mm into the abdominal aorta.
Ultrasound gel was centrifuged in a 60 mL syringe (1500×g, 10 min) to remove air bubbles, warmed to 37° C., and applied to the chest. Cardiac function was measured by M-mode transthoracic echocardiographic imaging of the parasternal short axis view, mid-papillary level using a Vevo 2100 high resolution echocardiography imaging system (FujiFilm VisualSonics, Toronto, ON, Canada). Contrast echocardiography was performed by using Siemens ultrasound imaging system (Sequoia Acuson C512; Siemens Medical Systems USA Inc., Mountain View, Calif.) with a high-frequency linear-array probe (15L8) held in place by a 3D railing system. For myocardial contrast echocardiography (MCE), we administered lipid-shelled microbubbles, which were freshly prepared by sonication of a decafluorobutane gas-saturated aqueous suspension of distearoylphosphatidylcholine (2 mg/mL) and polyoxyethylene-40-stearate (1 mg/mL). The contrast agent was intravenously infused via the jugular vein catheter at a rate of ˜5×10^5 microbubbles·min-1 (20 μl·min^−1) and MCE was performed by administering a multi-pulse contrast-specific pulse sequence to detect non-linear microbubble contrast signal at low mechanical index (MI=0.18-0.25). Data were acquired during and after a 1.9 MI pulse sequence to destruct microbubbles within the acoustic field, followed by imaging of replenished contrast signal.
Measurements of cardiac function, myocardial perfusion, and arterial blood pressure were performed at baseline, after administration of hexamethonium (5 mg·kg^−1, i.v.), and following successive doses of norepinephrine (0.5, 1.0, 2.5, and 5.0 μg·kg^−1·min^−1; 3 min duration each dose, followed by 3-5 min washout). […] All data analyses and calculations of cardiac workload (double product of mean arterial pressure and heart rate), cardiac function, myocardial blood flow, and mean arterial pressure were performed offline. For pressure measurements, we used Lab Chart 8 software (ADInstruments, Colorado Springs, Colo., USA). Left ventricular volume at end diastole (LVEDV) and end systole (LVESV), as well left ventricular internal diameter at end diastole (LVID,d) and end systole (LVID,s) were measured at steady state after drug infusions. […]

[1] = NE 2.5 μg/kg·min−1 i.v., Kvβ1.1−/− mice
[2] = NE 2.5 μg/kg·min−1 i.v., Kvβ2−/− mice
[3] = NE 2.5 μg/kg·min−1 i.v., SM22α-rtTA mice
[4] = NE 2.5 μg/kg·min−1 i.v., SM22α-rtTA:TRE-Kvβ1 mice
[5] = NE 2.5 μg/kg·min−1 i.v., Wild type (129SvEv) mice
[6] = NE 2.5 μg/kg·min−1 i.v., Wild type (C57B16N) mice
[7] = NE 5.0 μg/kg·min−1 i.v., Kvβ1.1−/− mice
[8] = NE 5.0 μg/kg·min−1 i.v., Kvβ2−/− mice
[9] = NE 5.0 μg/kg·min−1 i.v., SM22α-rtTA mice
[10] = NE 5.0 μg/kg·min−1 i.v., SM22α-rtTA:TRE-Kvβ1 mice
[11] = NE 5.0 μg/kg·min−1 i.v., Wild type (129SvEv) mice
[12] = NE 5.0 μg/kg·min−1 i.v., Wild type (C57B16N) mice

NC[C@H](O)c1ccc(O)c(O)c1 [norepinephrine]
EF (ejection fraction) [1]: 78.2 ± 2.0% | ESV (left ventricular end systolic volume) [1]: 9.4 ± 2.7 µL | FS (fractional shortening) [1]: 46.0 ± 1.8% | SV (stroke volume) [1]: 32.1 ± 6.1 µL | EDV (left ventricular end diastolic volume) [2]: 52.8 ± 3.5 µL | EF (ejection fraction) [2]: 70.1 ± 2.6% | ESV (left ventricular end systolic volume) [2]: 15.7 ± 1.6 µL | FS (fractional shortening) [2]: 39.0 ± 2.2% | SV (stroke volume) [2]: 37.1 ± 2.8 µL | EDV (left ventricular end diastolic volume) [3]: 51.5 ± 2.8 µL | EF (ejection fraction) [3]: 77.4 ± 5.1% | ESV (left ventricular end systolic volume) [3]: 12.2 ± 3.1 µL | FS (fractional shortening) [3]: 46.8 ± 4.8% | SV (stroke volume) [3]: 39.3 ± 2.1 µL | EDV (left ventricular end diastolic volume) [4]: 47.5 ± 5.5 µL | EF (ejection fraction) [4]: 74.2 ± 5.7% | ESV (left ventricular end systolic volume) [4]: 13.2 ± 4.3 µL | FS (fractional shortening) [4]: 43.1 ± 4.8% | SV (stroke volume) [4]: 34.3 ± 1.4 µL | EDV (left ventricular end diastolic volume) [5]: 48.8 ± 6.0 µL | EF (ejection fraction) [5]: 67.9 ± 2.7% | ESV (left ventricular end systolic volume) [5]: 16.0 ± 2.7 µL | FS (fractional shortening) [5]: 37.4 ± 2.1% | SV (stroke volume) [5]: 32.8 ± 3.6 µL | EDV (left ventricular end diastolic volume) [6]: 62.8 ± 3.7 µL | EF (ejection fraction) [6]: 72.88 ± 1.8% | ESV (left ventricular end systolic volume) [6]: 17.22 ± 1.7 µL | FS (fractional shortening) [6]: 41.47 ± 1.5% | SV (stroke volume) [6]: 45.63 ± 2.6 µL | EDV (left ventricular end diastolic volume) [7]: 45.7 ± 11.9 µL | EF (ejection fraction) [7]: 79.1 ± 2.7% | ESV (left ventricular end systolic volume) [7]: 10.4 ± 3.4 µL | FS (fractional shortening) [7]: 47.1 ± 2.4% | SV (stroke volume) [7]: 35.3 ± 8.5 µL | EDV (left ventricular end diastolic volume) [8]: 54.6 ± 4.5 µL | EF (ejection fraction) [8]: 67.5 ± 3.8% | ESV (left ventricular end systolic volume) [8]: 18.5 ± 3.1 µL | FS (fractional shortening) [8]: 37.3 ± 3.0% | SV (stroke volume) [8]: 36.1 ± 2.3 µL | EDV (left ventricular end diastolic volume) [9]: 56.9 ± 3.9 µL | EF (ejection fraction) [9]: 77.7 ± 5.8% | ESV (left ventricular end systolic volume) [9]: 13.4 ± 3.9 µL | FS (fractional shortening) [9]: 48.1 ± 6.0% | SV (stroke volume) [9]: 43.5 ± 3.1 µL | EDV (left ventricular end diastolic volume) [10]: 49.3 ± 5.7 µL | EF (ejection fraction) [10]: 69.9 ± 5.0% | ESV (left ventricular end systolic volume) [10]: 15.6 ± 3.9 µL | FS (fractional shortening) [10]: 39.3 ± 4.2% | SV (stroke volume) [10]: 33.7 ± 2.6 µL | EDV (left ventricular end diastolic volume) [11]: 56.4 ± 5.0 µL | EF (ejection fraction) [11]: 69.1 ± 2.4% | ESV (left ventricular end systolic volume) [11]: 17.3 ± 1.6 µL | FS (fractional shortening) [11]: 38.3 ± 1.9% | SV (stroke volume) [11]: 39.1 ± 4.1 µL | EDV (left ventricular end diastolic volume) [12]: 66.1 ± 4.4 µL | EF (ejection fraction) [12]: 73.65 ± 2.4% | ESV (left ventricular end systolic volume) [12]: 17.85 ± 2.3 µL | FS (fractional shortening) [12]: 42.39 ± 2.1% | SV (stroke volume) [12]: 48.26 ± 2.7 µL | ejection fraction (Kvβ2−/− mice): 71±1.7% | ejection fraction (WT animals): 84±2.2%
